What was measured:
Rattus norvegicus [1] = species: Rattus norvegicus; assay: Tested for change in release of insulin from pancreatic islets of Sprague-Dawley rats at a concentration of 2.8 mM glucose; assay type: functional
Rattus norvegicus [2] = species: Rattus norvegicus; assay: Tested for change in release of insulin from pancreatic islets of Sprague-Dawley rats at a concentration of 16.7 mM glucose; assay type: functional

## O[C@H]1[C@H](O)[C@H](O)C=C[C@H]1O
Rattus norvegicus [1]
  Change: 12%
Rattus norvegicus [2]
  Change: 15%

## O[C@@H]1[C@H](O)[C@@H](O)C2C(C3CCC2[C@H](O)[C@@H]3O)[C@H]1O (stereo partly specified)
Rattus norvegicus [1]
  Change: -18%
Rattus norvegicus [2]
  Change: 44%

## OC1[C@H]2O[C@@H]3C4CCC(C(C42)[C@@H](O)[C@@H]1O)[C@H]3O (single isomer, unassigned)
Rattus norvegicus [1]
  Change: 0%
Rattus norvegicus [2]
  Change: -70%

## CC(C)[C@@]12CC[C@@](C)(C3C1[C@H](O)[C@@H](O)[C@@H](O)[C@@H]3O)[C@@H](O)[C@H]2O (stereo partly specified)
Rattus norvegicus [1]
  Change: -30%
Rattus norvegicus [2]
  Change: -30%

## CC(C)[C@@]12CC[C@@]3(C)C4C1[C@H](O[C@H]2[C@@H]3O)C(O)[C@@H](O)[C@@H]4O (single isomer, unassigned)
Rattus norvegicus [1]
  Change: -60%
Rattus norvegicus [2]
  Change: -45%

## O[C@H]1[C@H](O)[C@@H](O)C=C[C@H]1O
Rattus norvegicus [1]
  Change: 9%
Rattus norvegicus [2]
  Change: -3%

## CC(=O)O[C@@H]1[C@H](OC(C)=O)[C@@H](OC(C)=O)C2C(C3CCC2[C@H](O)[C@@H]3O)[C@H]1OC(C)=O (stereo partly specified)
Rattus norvegicus [1]
  Change: -60%
Rattus norvegicus [2]
  Change: -23%

## O[C@@H]1[C@H](O)[C@@H](O)C2C([C@H](O)CC[C@@H]2O)[C@H]1O (stereo partly specified)
Rattus norvegicus [1]
  Change: -45%
Rattus norvegicus [2]
  Change: -35%

## C[C@@]1(O)CC2C(C[C@@]1(C)O)[C@H](O)[C@@H](O)[C@@H](O)[C@@H]2O (stereo partly specified)
Rattus norvegicus [1]
  Change: -60%
Rattus norvegicus [2]
  Change: 0%

## O[C@H]1[C@H](O)[C@@H](O)C=C[C@@H]1O
Rattus norvegicus [1]
  Change: 41%
Rattus norvegicus [2]
  Change: 50%

## O[C@@H]1[C@H](O)[C@@H](O)C=C[C@H]1O
Rattus norvegicus [1]
  Change: 45%
Rattus norvegicus [2]
  Change: -30%

## O[C@@H]1[C@H](O)[C@H](O)C=C[C@H]1O
Rattus norvegicus [1]
  Change: 27%
Rattus norvegicus [2]
  Change: -20%

## O[C@@H]1[C@H](O)[C@H](O)C=C[C@@H]1O
Rattus norvegicus [1]
  Change: 0%
Rattus norvegicus [2]
  Change: 0%

From ChEMBL document CHEMBL1149994, “Total synthesis of novel conduritol related compounds capable of modulating insulin release” (1994)
